Source: US20080145858A1, “DETECTION AND IDENTIFICATION OF TOXICANTS BY MEASUREMENT OF GENE […]” (priority 2003, published 2008)
Marks after values point to notes of the source that are not given here.

Test system: Xenopus laevis cleavage stage embryos (stage 8)
Experiment: Xenopus cDNA microarray, differential gene expression after PMA treatment during cleavage stage (Group I)
Assay type: in vivo
Conditions: stage 8; for Normalized by Landmarks (1.59) / Normalized by all Data Points (1.28) / Ratio of Medians (Cy5/Cy3) First Spot / Ratio of Medians (Cy5/Cy3) Mean / Ratio of Medians (Cy5/Cy3) Second Spot / (CY3/CY5) by Landmarks (1.6) / (CY3/CY5) by all Data Points (1.3) / Normalization by Landmarks (1.6) / Normalization by all Data Points (1.3): PMA 100 ng/ml
Source text: Specifically, the method and screen of the present invention function as follows. EST clones produced from Xenopus laevis unfertilized eggs were used in the present study with ˜1,200 EST clones from a 18,500 EST clone set selected for production of a Xenopus cDNA microarray. The Xenopus microarray was used to measure the effect of chemical treatment on Xenopus embryo gene regulation. The chemical treatment was a phorbol ester, PMA. Xenopus eggs were obtained from females induced for ovulation and fertilized in vitro. Control Xenopus laevis embryos were allowed to develop to stage 8 blastula or stage 15 neurula. Treated embryos were exposed to PMA during cleavage stage or during neurulation with end points of blastula (stage 8) or neurula (stage 15). Specifically, PMA 100 ng/ml was added to the incubation media during cleavage stages for evaluation in stage 8 embryo or PMA was added during neural induction for evaluation in stage 15 embryos. RNA extracted from the embryos was used to generate fluorescent cDNA probes for Xenopus microarray analyses to measure differential gene expression with and without the phorbol ester treatment. Analysis was performed using paired RNA samples to compare PMA-treated and untreated embryos: Group I measured the effects of PMA-treatment during the cleavage stage in stage 8 embryos and Group II measured the effects of PMA-treatment during neurulation in stage 15 embryos. Group III measured the change in gene expression between stage 8 and stage 15 embryos.
cDNA fragments were obtained by PCR replication of Xenopus laevis unfertilized egg cDNA inserts, purified, quantitated and loaded onto glass chips by robotics. In addition to the selected ˜1,200 genes, 64 lambda Q gene, an internal control cDNA (Genomic Solutions, Inc., Ann Arbor, Mich.) was loaded on the chip. The insert DNA from ˜1,200 clones were PCR amplified using forward and reverse primers (GF.200 primers, Research Genetics, Huntsville, Ala.). A second PCR was carried out using 1 μl of the primary PCR (20 μl) for template. Excess dNTPs, polymerase and other PCR artifacts were removed from the secondary PCR reactions using Millipore Multiscreen plates (Millipore Corporation, Bedford, Mass.) using the standard protocol. The purity of the PCR products was assessed by electrophoresis and documented using an Alphalmager 1000 Digital Imaging System (Alpha Innotech Corporation, San Leandro, Calif.). The DNA obtained by PCR was quantitated using PicoGreen (Molecular Probes, Eugene, Oreg.). The DNA was denatured and arrayed onto amino-silane coated microscope slides (CMT-GAPS coated slides, Corning, Corning, N.Y.) using a Flexys robotic workstation (Genomic Solutions Inc.). The ˜1,200 PCR products were arrayed in duplicate on each slide and cross-linked. Each gene chip contained duplicate cDNA samples.
Total RNA was prepared from embryos treated in three separate dishes per treatment group that were pooled. Total RNA was isolated from the frog embryos (1,200 embryos for each probe production) using TRIzol extraction (Gibco BRL, Grand Island, N.Y.) and Qiagen RNeasy kits (Qiagen, Valencia, Calif.). The ethanol precipitated RNA was resuspended in RNase-free water, quantitated with RiboGreen (Molecular Probes, Eugene, Oreg.). Total RNA was further purified using oligoTex mRNA maxi kit (Qiagen Co.) with the bound mRNA eluted with minimum volume of elution buffer and precipitated with ethanol. The recovery rate of mRNA by the ethanol precipitation method was ˜70%. Cy3- or Cy5-tagged probes were produced from an mRNA mixture (20 μl) of Xenopus mRNA (5 μg) and lambda Q gene mRNA (3.5 ng) reverse-transcribed with oligo(dT)18-22 primer and dNTPs and the reverse-transcribed cDNA was cross-linked with Cy3 or Cy5 as described in Clontech Atlas™ Glass Fluorescent Labeling kit manual (www.clontech.com). After hydrolysis of the RNA and purification of the probe (Centricon 50, Millipore, Bedford, Mass.), the cDNA in TE buffer was quantitated by absorbance at 260 nm. […]

SMILES: CCCCCCCCCCCCCC(=O)O[C@@H]1[C@@H](C)[C@@]2(O)[C@@H](C=C(CO)C[C@]3(O)C(=O)C(C)=C[C@@H]23)[C@@H]2C(C)(C)[C@]12OC(C)=O [PMA, phorbol 12-myristate 12-acetate]
- alpha-tubulin expression ratio, mean of 4 data points using NF from landmarks (2 alpha-tubulin genes (house keeping)): 0.85
- Normalized by Landmarks (1.59) (PBX0134C10 mRNA): 7.95
- Normalized by all Data Points (1.28) (PBX0134C10 mRNA): 6.40
- Ratio of Medians (Cy5/Cy3) First Spot (PBX0134C10 mRNA): 3.33
- Ratio of Medians (Cy5/Cy3) Mean (PBX0134C10 mRNA): 5.00 ± 1.67^a
- Ratio of Medians (Cy5/Cy3) Second Spot (PBX0134C10 mRNA): 6.67
- Normalized by Landmarks (1.59) (PBX0134E04 mRNA): 4.58
- Normalized by all Data Points (1.28) (PBX0134E04 mRNA): 3.69
- Ratio of Medians (Cy5/Cy3) First Spot (PBX0134E04 mRNA): 2.75
- Ratio of Medians (Cy5/Cy3) Mean (PBX0134E04 mRNA): 2.88 ± 0.12
- Ratio of Medians (Cy5/Cy3) Second Spot (PBX0134E04 mRNA): 3.00
- Normalized by Landmarks (1.59) (PBX0134G08 mRNA): 7.62
- Normalized by all Data Points (1.28) (PBX0134G08 mRNA): 6.13
- Ratio of Medians (Cy5/Cy3) First Spot (PBX0134G08 mRNA): 4.25
- Ratio of Medians (Cy5/Cy3) Mean (PBX0134G08 mRNA): 4.79 ± 0.54
- Ratio of Medians (Cy5/Cy3) Second Spot (PBX0134G08 mRNA): 5.33
- Normalized by Landmarks (1.59) (PBX0134G10 mRNA): 5.20
- Normalized by all Data Points (1.28) (PBX0134G10 mRNA): 4.19
- Ratio of Medians (Cy5/Cy3) First Spot (PBX0134G10 mRNA): 2.71
- Ratio of Medians (Cy5/Cy3) Mean (PBX0134G10 mRNA): 3.27 ± 0.56
- Ratio of Medians (Cy5/Cy3) Second Spot (PBX0134G10 mRNA): 3.83
- Normalized by Landmarks (1.59) (PBX0134G11 mRNA): 3.90
- Normalized by all Data Points (1.28) (PBX0134G11 mRNA): 3.14
- Ratio of Medians (Cy5/Cy3) First Spot (PBX0134G11 mRNA): 2.50
- Ratio of Medians (Cy5/Cy3) Mean (PBX0134G11 mRNA): 2.45 ± 0.05
- Ratio of Medians (Cy5/Cy3) Second Spot (PBX0134G11 mRNA): 2.40
- Normalized by Landmarks (1.59) (PBX0134H03 mRNA): 5.44
- Normalized by all Data Points (1.28) (PBX0134H03 mRNA): 4.38
- Ratio of Medians (Cy5/Cy3) First Spot (PBX0134H03 mRNA): 3.67
- Ratio of Medians (Cy5/Cy3) Mean (PBX0134H03 mRNA): 3.42 ± 0.25
- Ratio of Medians (Cy5/Cy3) Second Spot (PBX0134H03 mRNA): 3.17
- Normalized by Landmarks (1.59) (PBX0135C06 mRNA): 4.29
- Normalized by all Data Points (1.28) (PBX0135C06 mRNA): 3.46
- Ratio of Medians (Cy5/Cy3) First Spot (PBX0135C06 mRNA): 3.00
- Ratio of Medians (Cy5/Cy3) Mean (PBX0135C06 mRNA): 2.70 ± 0.30
- Ratio of Medians (Cy5/Cy3) Second Spot (PBX0135C06 mRNA): 2.40
- (CY3/CY5) by Landmarks (1.6) (PBX0136B04 mRNA): 2.76
- (CY3/CY5) by all Data Points (1.3) (PBX0136B04 mRNA): 4.41
- Normalization by Landmarks (1.6) (PBX0136B04 mRNA): 0.36
- Normalization by all Data Points (1.3) (PBX0136B04 mRNA): 0.23
- Ratio of Medians (Cy5/Cy3) First Spot (PBX0136B04 mRNA): 0.11
- Ratio of Medians (Cy5/Cy3) Mean (PBX0136B04 mRNA): 0.17 ± 0.06
- Ratio of Medians (Cy5/Cy3) Second Spot (PBX0136B04 mRNA): 0.24
- Normalized by Landmarks (1.59) (PBX0136C09 mRNA): 5.55
- Normalized by all Data Points (1.28) (PBX0136C09 mRNA): 4.47
- Ratio of Medians (Cy5/Cy3) First Spot (PBX0136C09 mRNA): 3.80
- Ratio of Medians (Cy5/Cy3) Mean (PBX0136C09 mRNA): 3.49 ± 0.31
- Ratio of Medians (Cy5/Cy3) Second Spot (PBX0136C09 mRNA): 3.17
- Normalized by Landmarks (1.59) (PBX0136F03 mRNA): 5.26
- Normalized by all Data Points (1.28) (PBX0136F03 mRNA): 4.24
- Ratio of Medians (Cy5/Cy3) First Spot (PBX0136F03 mRNA): 3.50
- Ratio of Medians (Cy5/Cy3) Mean (PBX0136F03 mRNA): 3.31 ± 0.20
- Ratio of Medians (Cy5/Cy3) Second Spot (PBX0136F03 mRNA): 3.11
- Normalized by Landmarks (1.59) (PBX0137A11 mRNA): 5.31
- Normalized by all Data Points (1.28) (PBX0137A11 mRNA): 4.28
- Ratio of Medians (Cy5/Cy3) First Spot (PBX0137A11 mRNA): 2.17
- Ratio of Medians (Cy5/Cy3) Mean (PBX0137A11 mRNA): 3.34 ± 1.66
- Ratio of Medians (Cy5/Cy3) Second Spot (PBX0137A11 mRNA): 4.50
- (CY3/CY5) by Landmarks (1.6) (PBX0137E10 mRNA): 1.85
- (CY3/CY5) by all Data Points (1.3) (PBX0137E10 mRNA): 2.96
- Normalization by Landmarks (1.6) (PBX0137E10 mRNA): 0.54
- Normalization by all Data Points (1.3) (PBX0137E10 mRNA): 0.34
- Ratio of Medians (Cy5/Cy3) First Spot (PBX0137E10 mRNA): 0.31
- Ratio of Medians (Cy5/Cy3) Mean (PBX0137E10 mRNA): 0.26 ± 0.05
- Ratio of Medians (Cy5/Cy3) Second Spot (PBX0137E10 mRNA): 0.21
- Normalized by Landmarks (1.59) (PBX0137G06 mRNA): 3.74
- Normalized by all Data Points (1.28) (PBX0137G06 mRNA): 3.01
- Ratio of Medians (Cy5/Cy3) First Spot (PBX0137G06 mRNA): 2.22
- Ratio of Medians (Cy5/Cy3) Mean (PBX0137G06 mRNA): 2.35 ± 0.13
- Ratio of Medians (Cy5/Cy3) Second Spot (PBX0137G06 mRNA): 2.47
- Normalized by Landmarks (1.59) (PBX0138A04 mRNA): 4.75
- Normalized by all Data Points (1.28) (PBX0138A04 mRNA): 3.83
- Ratio of Medians (Cy5/Cy3) First Spot (PBX0138A04 mRNA): 1.64
